Measured values reported in US11395489B2, “Microbiocidal picolinamide derivatives” (Syngenta Participations AG, priority 2017, dated 2022).

Experiments:
[1] = system: Puccinia recondita f. Sp. Tritici; test: Puccinia recondita f. sp. tritici / wheat / leaf disc preventative (Brown Rust); type: in vivo; conditions: foliar, 168 h, 200 ppm in the formulation, compared to untreated, 7-9 days after application, read-out: disease control
[2] = system: Glomerella lacenarium (Colletotrichum lacenarium); test: Glomerella lacenarium (Colletotrichum lacenarium) / liquid culture (Anthracnose); type: cell-based; conditions: 200 ppm in the formulation, inhibition of growth measured photometrically 3-4 days after application, read-out: disease control
Experimental: Glomerella lacenarium (Colletotrichum lacenarium)/Liquid Culture (Anthracnose) Conidia of the fungus from cryogenic storage are directly mixed into nutrient broth (PDB potato dextrose broth). After placing a (DMSO) solution of test compound into a microtiter plate (96-well format), the nutrient broth containing the fungal spores is added. The test plates are incubated at 24° C. and the inhibition of growth is measured photometrically 3-4 days after application.

[3] = system: Mycosphaerella Raminicola (Septoria tritici); test: Mycosphaerella Raminicola (Septoria tritici) / liquid culture (Septoria Blotch); type: cell-based; conditions: 200 ppm in the formulation, inhibition of growth determined photometrically 4 to 5 days after application, read-out: disease control
Experimental: Mycosphaerella Raminicola (Septoria tritici)/Liquid Culture (Septoria Blotch) Conidia of the fungus from cryogenic storage are directly mixed into nutrient broth (PDB potato dextrose broth). After placing a (DMSO) solution of test compound into a microtiter plate (96-well format), the nutrient broth containing the fungal spores is added. The test plates are incubated at 24° C. and the inhibition of growth is determined photometrically 4 to 5 days after application.

[4] = system: Monocraphella nivalis (Microdochium nivale); test: Monocraphella nivalis (Microdochium nivale) / liquid culture (Foot Rot Cereals); type: cell-based; conditions: 96 h, 200 ppm in the formulation, inhibition of growth determined photometrically 4-5 days after application, read-out: disease control
Experimental: Monocraphella nivalis (Microdochium nivale)/Liquid Culture (Foot Rot Cereals) Conidia of the fungus from cryogenic storage are directly mixed into nutrient broth (PDB potato dextrose broth). After placing a (DMSO) solution of test compound into a microtiter plate (96-well format), the nutrient broth containing the fungal spores is added. The test plates are incubated at 24° C. and the inhibition of growth is determined photometrically 4-5 days after application.

[5] = system: Mycosphaerella arachidis (Cercospora arachidicola); test: Mycosphaerella arachidis (Cercospora arachidicola) / liquid culture (Early Leaf Spot); type: cell-based; conditions: 96 h, 200 ppm in the formulation, inhibition of growth determined photometrically 4-5 days after application, read-out: disease control
Experimental: Mycosphaerella arachidis (Cercospora arachidicola)/Liquid Culture (Early Leaf Spot) Conidia of the fungus from cryogenic storage are directly mixed into nutrient broth (PDB potato dextrose broth). After placing a (DMSO) solution of test compound into a microtiter plate (96-well format), the nutrient broth containing the fungal spores is added. The test plates are incubated at 24° C. and the inhibition of growth is determined photometrically 4-5 days after application.

[6] = system: Botryotinia fuckeliana (Botrytis cinerea); test: Botryotinia fuckeliana (Botrytis cinerea) / liquid culture (Gray Mould); type: cell-based; conditions: 72 h, 200 ppm in the formulation, inhibition of growth determined photometrically 3-4 days after application, read-out: disease control
Experimental: Botryotinia fuckeliana (Botrytis cinerea)/Liquid Culture (Gray Mould) Conidia of the fungus from cryogenic storage are directly mixed into nutrient broth (Vogels broth). After placing a (DMSO) solution of test compound into a microtiter plate (96-well format), the nutrient broth containing the fungal spores is added. The test plates are incubated at 24° C. and the inhibition of growth is determined photometrically 3-4 days after application.

[7] = system: Magnaporthe risea (Pyricularia Oryzae); test: whole plant or invertebrate; type: in vivo; conditions: foliar, read-out: disease control
[8] = system: Phaeosphaeria Nodorum (Septoria nodorum); test: Phaeosphaeria nodorum (Septoria nodorum) / wheat / leaf disc preventative (Glume Blotch); type: in vivo; conditions: Parastagonospora nodorum, foliar, 200 ppm in the formulation, compared to untreated, 5-7 days after application, read-out: disease control
Experimental: Phaeosphaeria Nodorum (Septoria nodorum)/Wheat/Leaf Disc Preventative (Glume Blotch) Wheat leaf segments cv. Kanzler are placed on agar in a multiwell plate (24-well format) and sprayed with the formulated test compound diluted in water. The leaf disks are inoculated with a spore suspension of the fungus 2 days after application. The inoculated test leaf disks are incubated at 20° C. and 75% rh under a light regime of 12 h light/12 h darkness in a climate cabinet and the activity of a compound is assessed as percent disease control compared to untreated when an appropriate level of disease damage appears in untreated check leaf disks (5-7 days after application).

COc1ccnc(C(=O)N[C@@H](C)C(=O)OC(C)C2(c3ccc(Br)cc3)CCC2)c1O (stereo partly drawn) [I.m.012, 1-[1-(4-bromophenyl)-cyclobutyl]ethyl (2S)-2-[(3-hydroxy-4-methoxy-pyridine-2-carbonyl)amino]propanoate]
≥ 80%: pest or weed control at 200 ppm [1] | inhibition of growth at 200 ppm [2] | inhibition of growth at 200 ppm [3] | inhibition of growth at 200 ppm [4] | inhibition of growth at 200 ppm [5] | inhibition of growth at 200 ppm [6] | pest or weed control at 200 ppm [7]

COc1ccnc(C(=O)N[C@@H](C)C(=O)OC(C)C2(c3ccc(Cl)cc3)CC2)c1O (stereo partly drawn) [I.k.006, 1-[1-(4-chlorophenyl)-cyclopropyl]ethyl (2S)-2-[(3-hydroxy-4-methoxy-pyridine-2-carbonyl)amino]propanoate]
≥ 80%: pest or weed control at 200 ppm [1] | inhibition of growth at 200 ppm [3] | pest or weed control at 200 ppm [8] | inhibition of growth at 200 ppm [4] | inhibition of growth at 200 ppm [5] | inhibition of growth at 200 ppm [6]

COc1ccnc(C(=O)N[C@@H](C)C(=O)OC(C)C(C)(C)c2ccc(Br)cc2)c1O (stereo partly drawn) [I.m.001, [2-(4-bromophenyl)-1,2-dimethyl-propyl] (2S)-2-[(3-hydroxy-4-methoxy-pyridine-2-carbonyl)amino]propanoate]
≥ 80%: pest or weed control at 200 ppm [1] | inhibition of growth at 200 ppm [2] | inhibition of growth at 200 ppm [3] | pest or weed control at 200 ppm [8] | inhibition of growth at 200 ppm [4] | inhibition of growth at 200 ppm [5] | inhibition of growth at 200 ppm [6]

COc1ccnc(C(=O)N[C@@H](C)C(=O)OC(C)C2(c3ccccc3)CCCCC2)c1O (stereo partly drawn) [I.a.015, 1-(1-phenylcyclohexyl)-ethyl (2S)-2-[(3-hydroxy-4-methoxy-pyridine-2-carbonyl)amino]propanoate]
≥ 80%: pest or weed control at 200 ppm [1] | inhibition of growth at 200 ppm [2] | inhibition of growth at 200 ppm [3] | pest or weed control at 200 ppm [8] | inhibition of growth at 200 ppm [4] | inhibition of growth at 200 ppm [5] | inhibition of growth at 200 ppm [6]

COc1ccnc(C(=O)N[C@@H](C)C(=O)OC(C)C2(c3ccc(Cl)cc3)CCCC2)c1O (stereo partly drawn) [I.k.014, 1-[1-(4-chlorophenyl)-cyclopentyl]ethyl (2S)-2-[(3-hydroxy-4-methoxy-pyridine-2-carbonyl)amino]propanoate]
≥ 80%: pest or weed control at 200 ppm [1] | inhibition of growth at 200 ppm [2] | inhibition of growth at 200 ppm [3] | inhibition of growth at 200 ppm [4] | inhibition of growth at 200 ppm [5] | inhibition of growth at 200 ppm [6] | pest or weed control at 200 ppm [7]

COc1ccnc(C(=O)N[C@@H](C)C(=O)OC(C)C2(c3ccc(Cl)c(Cl)c3)CC2)c1O (stereo partly drawn) [I.t.006, 1-[1-(3,4-dichloro-phenyl)cyclopropyl]-ethyl (2S)-2-[(3-hydroxy-4-methoxy-pyridine-2-carbonyl)-amino]propanoate]
≥ 80%: pest or weed control at 200 ppm [1] | inhibition of growth at 200 ppm [2] | inhibition of growth at 200 ppm [3] | inhibition of growth at 200 ppm [4] | inhibition of growth at 200 ppm [5] | inhibition of growth at 200 ppm [6] | pest or weed control at 200 ppm [7]

COc1ccnc(C(=O)N[C@@H](C)C(=O)OC(C)C2(c3cccc4ccccc34)CC2)c1O (stereo partly drawn) [I.v.006, 1-[1-(1-naphthyl)cyclo-propyl]ethyl (2S)-2-[(3-hydroxy-4-methoxy-pyridine-2-carbonyl)-amino]propanoate]
≥ 80%: pest or weed control at 200 ppm [1] | inhibition of growth at 200 ppm [2] | inhibition of growth at 200 ppm [3] | pest or weed control at 200 ppm [8] | inhibition of growth at 200 ppm [4] | inhibition of growth at 200 ppm [5]

COc1ccnc(C(=O)N[C@@H](C)C(=O)OC(C)C(C)(C)c2ccccc2)c1O (stereo partly drawn) [I.a.001, (1,2-dimethyl-2-phenyl-propyl) (2S)-2-[(3-hydroxy-4-methoxy-pyridine-2-carbonyl)amino]propanoate]
≥ 80%: pest or weed control at 200 ppm [1] | inhibition of growth at 200 ppm [3] | pest or weed control at 200 ppm [8] | inhibition of growth at 200 ppm [4] | inhibition of growth at 200 ppm [5] | inhibition of growth at 200 ppm [6]

COc1ccnc(C(=O)N[C@@H](C)C(=O)OC(C)C2(c3ccc(Cl)cc3)CCCCC2)c1O (stereo partly drawn) [I.k.015, 1-[1-(4-chlorophenyl)-cyclohexyl]ethyl (2S)-2-[(3-hydroxy-4-methoxy-pyridine-2-carbonyl)amino]propanoate]
≥ 80%: pest or weed control at 200 ppm [1] | inhibition of growth at 200 ppm [2] | inhibition of growth at 200 ppm [3] | pest or weed control at 200 ppm [8] | inhibition of growth at 200 ppm [4] | inhibition of growth at 200 ppm [5] | inhibition of growth at 200 ppm [6]

COc1ccnc(C(=O)N[C@@H](C)C(=O)OC(C)C2(c3ccc(OC(F)(F)F)cc3)CC2)c1O (stereo partly drawn) [I.q.006, 1-[1-[4-(trifluoro-methoxy)phenyl]cyclo-propyl]ethyl (2S)-2-[(3-hydroxy-4-methoxy-pyridine-2-carbonyl)amino]propanoate]
≥ 80%: pest or weed control at 200 ppm [1] | inhibition of growth at 200 ppm [2] | inhibition of growth at 200 ppm [3] | inhibition of growth at 200 ppm [4] | inhibition of growth at 200 ppm [5] | inhibition of growth at 200 ppm [6] | pest or weed control at 200 ppm [7]

CCOc1ccc(C2(C(C)OC(=O)[C@H](C)NC(=O)c3nccc(OC)c3O)CC2(F)F)cc1 (stereo partly drawn) [I.u.007, 1-[1-(4-ethoxyphenyl)-2,2-difluorocyclopropyl]-ethyl (2S)-2-[(3-hydroxy-4-methoxy-pyridine-2-carbonyl)amino]propanoate]
≥ 80%: pest or weed control at 200 ppm [1] | inhibition of growth at 200 ppm [2] | inhibition of growth at 200 ppm [3] | inhibition of growth at 200 ppm [4] | inhibition of growth at 200 ppm [6] | pest or weed control at 200 ppm [7]

COc1ccnc(C(=O)N[C@@H](C)C(=O)OC(C)C2(c3ccc(Cl)cc3)CCCCC2)c1OC(C)=O (stereo partly drawn) [I.k.075, 1-[1-(4-chlorophenyl)-cyclohexyl]ethyl (2S)-2-[(3-acetoxy-4-methoxy-pyridine-2-carbonyl)-amino]propanoate]
≥ 80%: pest or weed control at 200 ppm [1] | inhibition of growth at 200 ppm [2] | inhibition of growth at 200 ppm [3] | pest or weed control at 200 ppm [8] | inhibition of growth at 200 ppm [5] | pest or weed control at 200 ppm [7]
